Laboratory results reported in article PMC4045323 (Biochemistry, 2014).

Biological target: E275C gp120 (Human immunodeficiency virus type 1 group M subtype B, UniProt P35961, E271C)
Test: covalent labeling
Format: biochemical, HIV-1
Details: α-biotin Western blot, reactants in 2-fold excess (Figure 3)

## O=C(CCCC[C@@H]1SC[C@@H]2NC(=O)N[C@@H]21)NCCOCCOCCNC(=O)CCN1C(=O)C=CC1=O [MPB, Maleimide-PEG2-biotin, reference compound]
  biotinylation (labeling) of E275C gp120: yields significantly lower
